By IC50 is commonly meant the concentration at which inhibition is half-maximal. Read a high IC50 as weaker potency.

IC50 data for 28 compounds are collected here from patent US11046649B2, “Compounds useful as inhibitors of indoleamine 2,3-dioxygenase and/or tryptophan dioxygenase” (Board of Regents, The University of Texas System, priority 2018, dated 2021).

T1 sequence (P14902 whole entry): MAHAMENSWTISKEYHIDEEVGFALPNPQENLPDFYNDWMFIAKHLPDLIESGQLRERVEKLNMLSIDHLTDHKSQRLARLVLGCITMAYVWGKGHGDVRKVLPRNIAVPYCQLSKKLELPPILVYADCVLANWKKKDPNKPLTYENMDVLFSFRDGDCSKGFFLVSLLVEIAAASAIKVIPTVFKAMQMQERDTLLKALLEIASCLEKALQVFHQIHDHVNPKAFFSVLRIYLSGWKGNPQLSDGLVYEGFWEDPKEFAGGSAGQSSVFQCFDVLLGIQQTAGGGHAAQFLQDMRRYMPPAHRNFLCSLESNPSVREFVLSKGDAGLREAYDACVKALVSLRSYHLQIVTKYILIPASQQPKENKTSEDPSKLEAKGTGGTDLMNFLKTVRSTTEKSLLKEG

The test concerns the target T1, IDO1 (Homo sapiens, UniProt P14902).
T1 construct: endogenous in cells; host or cells: HeLa cells (ATCC), IDO1 induced with 10 ng/mL IFNgamma
In words: IDO1 cell-based assay. The settings on record: HeLa cells, 10 ng/mL IFNgamma, 24 hours with test compound; N-Formyl Kynurenine and L-tryptophan quantified by RFMS.
With `CC(C(=O)Nc1ccc(C(F)(F)F)cn1)[C@H]1[C@@H]2C[C@@H](n3cnc4cc(F)c(F)cc43)C[C@@H]21` (stereo partly drawn) [Example 18, 2-((1R,3s,5S,6r)-3-(5,6-difluoro-1H-benzo[d]-imidazol-1-yl)bicyclo-[3.1.0]hexan-6-yl)-N-(5-(trifluoromethyl)pyridin-2-yl)propanamide], the midpoint of inhibition, the IC50, lay at 4.8 nM. That is a single-digit nanomolar value. Regarding `CCC(C(=O)Nc1ccc(C#N)nn1)[C@H]1[C@@H]2C[C@@H](Oc3ccnc4ccc(F)cc34)C[C@@H]21` (stereo partly drawn) [Example 149, N-(6-cyanopyridazin-3-yl)-2-((1R,3s,5S,6r)-3-((6-fluoroquinolin-4-yl)oxy)-bicyclo[3.1.0]hexan-6-yl)butanamide], the IC50 amounted to 5.49 nM.

As for `CC(C(=O)NC12CC(NC(=O)CO)(C1)C2)[C@H]1[C@@H]2C[C@@H](Oc3ccnc4ccc(F)cc34)C[C@@H]21` (stereo partly drawn) [Example 129, 2-((1R,3s,5S,6r)-3-((6-fluoroquinolin-4-yl)oxy)-bicyclo[3.1.0]hexan-6-yl)-N-(3-(2-hydroxy-acetamido)bicyclo-[1.1.1]pentan-1-yl)-propanamide], the IC50 turned out to be 597 nM. This IC50 lies about 110-fold higher than the previous one. To `CC(C(=O)Nc1ccc(C(F)(F)F)nc1)[C@H]1[C@@H]2C[C@@H](Oc3ccnc4ccc(F)cc34)C[C@@H]21` (stereo partly shown) [Example 60] belongs 4.7 nM; to “N-(5-(1H-1,2,4-triazol-1- yl)pyridin-2-yl)-2- ((1R,3s,5S,6r)-3-((6- fluoroquinolin-4-yl)- oxy)bicyclo[3.1.0]hexan-6- yl)propanamide [Example 96]”, 7.1 nM. To `CC(C(=O)NC12CC(c3ccc(F)cc3)(C1)C2)[C@H]1[C@@H]2C[C@@H](n3cnc4cc(F)c(F)cc43)C[C@@H]21` (stereo partly drawn) [Example 39, 2-((1R,3s,5S,6r)-3-(5,6-difluoro-1H-benzo[d]-imidazol-1-yl)bicyclo-[3.1.0]hexan-6-yl)-N-(3-(4-fluorophenyl)bicyclo-[1.1.1]pentan-1-yl)-propanamide] belongs 12.9 nM; to `CC(C(=O)NC12CC(NC(=O)CC#N)(C1)C2)[C@H]1[C@@H]2C[C@@H](Oc3ccnc4ccc(F)cc34)C[C@@H]21` (stereo partly shown) [Example 130], 636 nM. To `CC(C(=O)Nc1cnc2ccccn12)[C@H]1[C@@H]2C[C@@H](n3cnc4cc(F)c(F)cc43)C[C@@H]21` (stereo partly drawn) [Example 50, 2-((1R,3s,5S,6r)-3-(5,6-difluoro-1H-benzo[d]-imidazol-1-yl)bicyclo-[3.1.0]hexan-6-yl)-N-(imidazo[1,2-a]pyridin-3-yl)propanamide] belongs 495 nM; to `CC(C(=O)Nc1nnc(C(F)(F)F)[nH]1)[C@H]1[C@@H]2C[C@@H](Oc3ccnc4ccc(F)cc34)C[C@@H]21` (stereo partly drawn) [Example 74, 2-((1R,3s,5S,6r)-3-((6-fluoroquinolin-4-yl)oxy)-bicyclo[3.1.0]hexan-6-yl)-N-(5-(trifluoromethyl)-4H-1,2,4-triazol-3-yl)-propanamide], 156 nM; to `Cc1ncc(-c2ccc(NC(=O)[C@@H](C)[C@H]3[C@@H]4C[C@@H](n5cnc6cc(F)c(F)cc65)C[C@@H]43)cc2)cn1` [Example 66, (S)-2-((1R,3R,5S,6r)-3-(5,6-difluoro-1H-benzo[d]-imidazol-1-yl)bicyclo-[3.1.0]hexan-6-yl)-N-(4-(2-methylpyrimidin-5-yl)-phenyl)propanamide], 1140 nM. As for “N-(5-cyanopyridin-2-yl)-2- ((1R,3s,5S,6r)-3-((6- fluoroquinolin-4-yl)oxy)- bicyclo[3.1.0]hexan-6-yl)- propanamide [Example 58]”, 2 nM corresponded to half-maximal inhibition (IC50). Against the preceding compound, the IC50 is about 570-fold lower. To “2-((1R,3s,5S,6r)-3-((6- fluoroquinolin-4-yl)oxy)- bicyclo[3.1.0]hexan-6-yl)- N-(5-(4-methyl-4H-1,2,4- triazol-3-yl)pyridin-2-yl)- propanamide [Example 97]” belongs 818 nM. Then `CC(C(=O)NC12CC(C#N)(C1)C2)[C@H]1[C@@H]2C[C@@H](n3cnc4cc(F)c(F)cc43)C[C@@H]21` (stereo partly drawn) [Example 23, N-(3-cyanobicyclo-[1.1.1]pentan-1-yl)-2-((1R,3s,5S,6r)-3-(5,6-difluoro-1H-benzo[d]-imidazol-1-yl)bicyclo-[3.1.0]hexan-6-yl)-propanamide], with 1650 nM. As to `C[C@H](C(=O)Nc1ccc(-c2ccc(F)cn2)cc1)[C@H]1[C@@H]2C[C@@H](n3cnc4cc(F)c(F)cc43)C[C@@H]21` [Example 85, (S)-2-((1R,3R,5S,6r)-3-(5,6-difluoro-1H-benzo[d]-imidazol-1-yl)bicyclo-[3.1.0]hexan-6-yl)-N-(4-(5-fluoropyridin-2-yl)phenyl)-propanamide], the IC50 came to 1910 nM. Compound `CC(C(=O)NC1CCC(F)(F)C1)[C@H]1[C@@H]2C[C@@H](n3cnc4cc(F)c(F)cc43)C[C@@H]21` (stereo partly drawn) [Example 32, 2-((1R,3s,5S,6r)-3-(5,6-difluoro-1H-benzo[d]-imidazol-1-yl)bicyclo-[3.1.0]hexan-6-yl)-N-(3,3-difluorocyclopentyl)-propanamide] yielded an IC50 of 289 nM. To `CC(C(=O)Nc1cc(C(F)(F)F)nn1C)[C@H]1[C@@H]2C[C@@H](n3cnc4cc(F)c(F)cc43)C[C@@H]21` (stereo partly drawn) [Example 55, 2-((1R,3s,5S,6r)-3-(5,6-difluoro-1H-benzo[d]-imidazol-1-yl)bicyclo-[3.1.0]hexan-6-yl)-N-(1-methyl-3-(trifluoromethyl)-1H-pyrazol-5-yl)-propanamide] belongs 275 nM; to `CC(C(=O)NC12CC(c3ccc(F)cc3)(C1)C2)[C@H]1[C@@H]2C[C@@H](Oc3ccnc4ccc(F)cc34)C[C@@H]21` (stereo partly drawn) [Example 100, N-(3-(4-fluorophenyl)-bicyclo[1.1.1]pentan-1-yl)-2-((1R,3s,5S,6r)-3-((6-fluoroquinolin-4-yl)-oxy)bicyclo[3.1.0]hexan-6-yl)propanamide], 45.3 nM; to `CC(C(=O)Nc1nc2c(Br)cc(Cl)cc2s1)[C@H]1[C@@H]2C[C@@H](Oc3ccnc4ccc(F)cc34)C[C@@H]21` (stereo partly drawn) [Example 95, N-(4-bromo-6-chloro-benzo[d]thiazol-2-yl)-2-((1R,3s,5S,6r)-3-((6-fluoroquinolin-4-yl)-oxy)bicyclo[3.1.0]hexan-6-yl)propanamide], 231 nM. Then `Cc1nnc(-c2ccc(NC(=O)[C@@H](C)[C@H]3[C@@H]4C[C@@H](n5cnc6cc(F)c(F)cc65)C[C@@H]43)cc2)s1` [Example 70, (S)-2-((1R,3R,5S,6r)-3-(5,6-difluoro-1H-benzo[d]-imidazol-1-yl)bicyclo-[3.1.0]hexan-6-yl)-N-(4-(5-methyl-1,3,4-thiadiazol-2-yl)phenyl)propanamide], with 238 nM; and `CC(C(=O)Nc1cnn(C(F)F)c1)[C@H]1[C@@H]2C[C@@H](n3cnc4cc(F)c(F)cc43)C[C@@H]21` (stereo partly drawn) [Example 47, 2-((1R,3s,5S,6r)-3-(5,6-difluoro-1H-benzo[d]-imidazol-1-yl)bicyclo-[3.1.0]hexan-6-yl)-N-(1-(difluoromethyl)-1H-pyrazol-4-yl)propanamide], with 14 nM; and `CC(C(=O)NCCC(F)(F)F)[C@H]1[C@@H]2C[C@@H](n3cnc4cc(F)c(F)cc43)C[C@@H]21` (stereo partly drawn) [Example 45, 2-((1R,3s,5S,6r)-3-(5,6-difluoro-1H-benzo[d]-imidazol-1-yl)bicyclo-[3.1.0]hexan-6-yl)-N-(3,3,3-bifluoropropyl)-propanamide], with 663 nM. As to `CC(C(=O)Nc1nc2ccccc2[nH]1)[C@H]1[C@@H]2C[C@@H](Oc3ccnc4ccc(F)cc34)C[C@@H]21` (stereo partly drawn) [Example 107, N-(1H-benzo[d]imidazol-2-yl)-2-((1R,3s,5S,6r)-3-((6-fluoroquinolin-4-yl)oxy)-bicyclo[3.1.0]hexan-6-yl)propanamide], the half-maximal inhibitory concentration (IC50) came out at 9.2 nM.

The compound `CC(C(=O)Nc1cc2ccccn2n1)[C@H]1[C@@H]2C[C@@H](Oc3ccnc4ccc(F)cc34)C[C@@H]21` (stereo partly drawn) [Example 87, 2-((1R,3s,5S,6r)-3-((6-fluoroquinolin-4-yl)oxy)-bicyclo[3.1.0]hexan-6-yl)-N-(pyrazolo[1,5-a]pyridin-2-yl)propanamide] displayed an IC50 of 3 nM. To `CCC(C(=O)Nc1ccc(-n2cncn2)cn1)[C@H]1[C@@H]2C[C@@H](Oc3ccnc4ccc(F)cc34)C[C@@H]21` (stereo partly drawn) [Example 119, N-(5-(1H-1,2,4-triazol-1-yl)pyridin-2-yl)-2-((1R,3s,5S,6r)-3-((6-fluoro-quinolin-4-yl)oxy)-bicyclo[3.1.0]hexan-6-yl)-butanamide] belongs 6.9 nM.

`CC(C(=O)Nc1cnn(C)c1)[C@H]1[C@@H]2C[C@@H](n3cnc4cc(F)c(F)cc43)C[C@@H]21` (stereo partly drawn) [Example 31, 2-((1R,3s,5S,6r)-3-(5,6-difluoro-1H-benzo[d]-imidazol-1-yl)bicyclo-[3.1.0]hexan-6-yl)-N-(1-methyl-1H-pyrazol-4-yl)-propanamide]: the 50% inhibitory concentration (IC50) turned out to be 141 nM. To `C[C@H](C(=O)Nc1ccc(-c2cnn(C)c2)cc1)[C@H]1[C@@H]2C[C@@H](n3cnc4cc(F)c(F)cc43)C[C@@H]21` [Example 65, (S)-2-((1R,3R,5S,6r)-3-(5,6-difluoro-1H-benzo[d]-imidazol-1-yl)-bicyclo[3.1.0]hexan-6-yl)-N-(4-(1-methyl-1H-pyrazol-4-yl)phenyl)-propanamide] belongs 170 nM; to `N#Cc1ccc(NC(=O)C(C2CC2)[C@H]2[C@@H]3C[C@@H](Oc4ccnc5ccc(F)cc45)C[C@@H]32)nn1` (stereo partly drawn) [Example 124, N-(6-cyanopyridazin-3-yl)-2-cyclopropyl-2-((1R,3s,5S,6r)-3-((6-fluoroquinolin-4-yl)oxy)-bicyclo[3.1.0]hexan-6-yl)acetamide], 8.41 nM.

For the compound `CC(C(=O)Nc1nc[nH]n1)[C@H]1[C@@H]2C[C@@H](Oc3ccnc4ccc(F)cc34)C[C@@H]21` (stereo partly drawn) [Example 77, 2-((1R,3s,5S,6r)-3-((6-fluoroquinolin-4-yl)oxy)-bicyclo[3.1.0]hexan-6-yl)-N-(1H-1,2,4-triazol-3-yl)-propanamide], the IC50 is 111 nM. This IC50 is about 13-fold higher than that of the compound before.
